{"source": "patent US20050233974A1", "about": "“Treating infectious diseases using ice inhibitors” (priority 2003, published 2005)", "key": {"[1]": {"tested_on": "P. aeruginosa strain 19660", "assay": "corneal infection model, P. aeruginosa ATCC strain 19660", "type": "in vivo, B6 mice", "protocol": "Eight week old female B6 mice (The Jackson Laboratory, Bar Harbor, Me.) were used in these experiments. The left cornea of each anesthetized mouse was scarified with three parallel 1 mm incisions using a sterile 25⅝ gauge needle under a stereoscopic microscope. […] Eyes were examined macroscopically at 1 day post-infection (p.i.) and at times described below to ensure that all mice were similarly infected and to monitor the course of disease. All animals were treated humanely and in full compliance with the Association for Research in Vision and Ophthalmology resolution on usage and treatment of animals in research.\nWorth, Tex.) begun at 18 h p.i. and then 3×/day for 7 days. Initiation of ICE inhibitor therapy at 18 h p.i. was chosen to test experimentally in order to provide more clinically relevant data. In addition, by this time point, it would be expected that a patient would notice ocular symptoms such as haziness, discomfort and pain and would seek care.\nMice (n=5/group) were color coded and examined in masked fashion by two independent observers at 1, 3, 5 and 7 days p.i. to grade the severity of disease after P. aeruginosa infection.\nThe samples were subjected to three freeze-thaw cycles and then centrifuged at 14,000 rpm for 20 min. […] The change in absorbance at 460 nm was continuously monitored for 5 min. The results were expressed as units of MPO/cornea.\nFor this, individual corneas were homogenized in sterile PBS and aliquots (100 μl) of serial dilutions were plated onto Pseudomonas isolation agar (Difco, Detroit, Mich.) plates in triplicate. Plates were incubated for 24 h at 37° C. Results were expressed as log10 number of CFU/cornea±SEM.\nCorneas (n=5/group) were removed at 7 days p.i. and immediately stored at −70° C. Before analysis, individual corneas were homogenized in 0.1% Tween 20-PBS with a glass Kontes pestle (Fisher, Itasca, Ill.) centrifuged at 5000×g for 10 minutes at 4° C., and supernatants were used to quantify IL-1β and MIP-2 proteins. Results are reported as pg/ml.\nThe change in clinical score with time within a group was tested by the Friedman two-way analysis of variance by ranks. The difference in clinical score at each experimental time point between the ICE inhibitor and placebo treated B6 mice was tested by the Mann-Whitney U test. An unpaired, two-tailed Student's t-test was used to determine statistical significance for data from MPO assay, bacterial counts and ELISA analyses between treated and control groups. Mean differences were considered significant at P≦0.05. Experiments were repeated at least twice to ensure reproducibility and representative data from a single experiment are shown."}, "[2]": {"tested_on": "Pseudomonas isolates resistant to ciprofloxacin", "conditions": "22 ciprofloxacin-resistant isolates of 141 culture-proven cases; cited from earlier work"}}, "data": [{"smiles": "O=C(O)c1cn(C2CC2)c2cc(N3CCNCC3)c(F)cc2c1=O", "note": "[ciprofloxacin]", "values": [{"measurement": "histopathological examination of eyes", "setting": "[1]; 7 days p.i.", "result": "heavier inflammatory cells infiltrate in the anterior chamber and adherent to the corneal endothelium"}, {"measurement": "viable bacteria in cornea (plate counts)", "setting": "[1]; 7 days p.i., ICE inhibitor vs. placebo (P=0.02)", "result": "No bacterial colonies were isolated"}, {"measurement": "protein levels of MIP-2 in cornea (ELISA)", "setting": "[1]; 7 days p.i., ICE inhibitor vs. vehicle (P=0.012), with ciprofloxacin vs. vehicle and ciprofloxacin (P=0.04)", "result": "markedly reduced"}, {"measurement": "protein levels of IL-1β in cornea (ELISA)", "setting": "[1]; 7 days p.i., ICE inhibitor vs. vehicle (P=0.023), with ciprofloxacin vs. vehicle and ciprofloxacin (P=0.036)", "result": "markedly reduced"}, {"measurement": "slit lamp microscopy of cornea", "setting": "[1]; day 7 p.i.", "result": "heavier cellular infiltration in the cornea as well as in the anterior chamber"}, {"measurement": "mean MIC", "setting": "[2]", "result": 43, "unit": "µg/mL"}]}]}
